Measured values: patent publication US6624176B2, “Heteroaromatic substituted amides with antagonistic activity to neurokinin 1 receptors” (Hoffmann-La Roche Inc., priority 2001, dated 2003)

Legend:
human NK1 receptor = target: T1, human NK1 receptor (Homo sapiens, UniProt P25103); assay: NK1 receptor binding assay, [3H]substance P displacement; conditions: affinity to the NK-1 receptor; human NK1 receptors in CHO cells; [3H]substance P 0.6 nM
T1 construct: expressed in transfected cells; host or cells: CHO cells infected using the Semliki virus expression system; membrane suspension
T1 sequence (P25103 whole entry): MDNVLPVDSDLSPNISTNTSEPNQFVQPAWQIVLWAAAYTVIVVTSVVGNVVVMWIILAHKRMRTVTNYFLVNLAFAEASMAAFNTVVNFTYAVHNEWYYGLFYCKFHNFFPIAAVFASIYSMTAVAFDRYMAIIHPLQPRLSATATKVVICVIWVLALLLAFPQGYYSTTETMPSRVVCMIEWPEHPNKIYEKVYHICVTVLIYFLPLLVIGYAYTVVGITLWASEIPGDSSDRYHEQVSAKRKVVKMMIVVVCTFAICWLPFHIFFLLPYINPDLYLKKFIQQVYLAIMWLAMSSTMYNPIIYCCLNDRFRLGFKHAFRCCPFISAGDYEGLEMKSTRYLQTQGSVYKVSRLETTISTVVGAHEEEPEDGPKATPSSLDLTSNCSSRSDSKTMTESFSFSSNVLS
Protocol: The affinity of test compounds for the NK1 receptor was evaluated at human NK1 receptors in CHO cells infected with the human NK1 receptor (using the Semliki virus expression system) and radiolabelled with [^3H]substance P (final concentration 0.6 nM). Binding assays were performed in HEPES buffer (50 mM, pH 7.4) containing BSA (0.04%) leupeptin (8 μg/ml), MnCI2 (3 mM) and phosphoramidon (2 μM). Binding assays consisted of 250 μl of membrane suspension (1.25×10^5 cells/assay tube), […] of buffer of displacing agent and 125 μl of [^3H]substance P. Displacement curves were determined with at least seven concentrations of the compound. The assay tubes were incubated for 60 min at room temperature after which time the tube contents were rapidly filtered under vacuum through GF/C filters presoaked for 60 min with PEI (0.3%) with 2×2 ml washes of HEPES buffer (50 mM, pH 7.4). The radioactivity retained on the filters was measured by scintillation counting. All assays were performed in triplicate in at least 2 separate experiments.

Row | melting point [°C] | Ki (human NK1 receptor) [nM] | Structure (SMILES)
1 | 91 to 93 | 3.98 | Cc1ccccc1-c1cc(-n2cncn2)ncc1C(=O)N(C)Cc1cc(C(F)(F)F)cc(C(F)(F)F)c1 [Example 1, N-(3,5-Bis-trifluoromethyl-benzyl)-N-methyl-4-o-tolyl-6-[1,2,4]triazol-1-yl-nicotinamide]
2 |  | 1.35 | Cc1ccccc1-c1cc(NCCO)ncc1C(=O)N(C)Cc1cc(C(F)(F)F)cc(C(F)(F)F)c1 [Example 2, N-(3,5-Bis-trifluoromethyl-benzyl)-6-(2-hydroxy-ethylamino)-N-methyl-4-o-tolyl-nicotinamide]
3 | 150 to 152 | 1.23 | Cc1ccccc1-c1cc(N2CCC(O)CC2)ncc1C(=O)N(C)Cc1cc(C(F)(F)F)cc(C(F)(F)F)c1 [Example 3, 4-Hydroxy-4′-o-tolyl-3,4,5,6-tetrahydro-2H-[1,2′]bipyridinyl-5′-carboxylic acid (3,5-bis-trifluoromethyl-benzyl)-methyl-amide]
4 |  | 0.933 | Cc1ccccc1-c1cc(N2CCC(OCCO)CC2)ncc1C(=O)N(C)Cc1cc(C(F)(F)F)cc(C(F)(F)F)c1 [Example 4, 4-(2-Hydroxy-ethoxy)-4′-o-tolyl-3,4,5,6-tetrahydro-2H-[1,2′]bipyridinyl-5′-carboxylic acid (3,5-bis-trifluoromethyl-benzyl)-methyl-amide]
5 |  | 0.575 | Cc1ccccc1-c1cc(N2CC[C@@H](O)C2)ncc1C(=O)N(C)Cc1cc(C(F)(F)F)cc(C(F)(F)F)c1 [Example 5, (R)-N-(3,5-Bis-trifluoromethyl-benzyl)-6-(3-hydroxy-pyrrolidin-1-yl)-N -methyl-4-o-tolyl-nicotinamide]
6 |  | 0.661 | CN(Cc1cc(C(F)(F)F)cc(C(F)(F)F)c1)C(=O)c1cnc(N2CCC(O)CC2)cc1-c1ccccc1Cl [Example 6, 4′-(2-Chloro-phenyl)-4-hydroxy-3,4,5,6-tetrahydro-2H-[1,2′]bipyridinyl-5′-carboxylic acid (3,5-bis-trifluoromethyl-benzyl)-methyl-amide]
7 |  | 0.692 | Cc1ccccc1-c1cc(NCCO)ncc1N(C)C(=O)C(C)(C)c1cc(C(F)(F)F)cc(C(F)(F)F)c1 [Example 7, 2-(3,5-Bis-trifluoromethyl-phenyl)-N-[6-(2-hydroxy-ethylamino)-4-o-toyl-pyridin-3-yl]-N-methyl-isobutyramide]
8 |  | 0.724 | CN(C(=O)C(C)(C)c1cc(C(F)(F)F)cc(C(F)(F)F)c1)c1cnc(NCCO)cc1-c1ccccc1Cl [Example 8, 2-(3,5-Bis-trifluofomethyl-phenyl)-N-[4-(2-chloro-phenyl)-6-(2-hydroxy-ethylamino)-pyridin-3-yl]-N-methyl-isobutyramide]
9 |  | 1.48 | Cc1ccccc1-c1cc(N2C=COCC2)ncc1N(C)C(=O)C(C)(C)c1cc(C(F)(F)F)cc(C(F)(F)F)c1 [Example 9, 2-(3,5-Bis-trifluoromethyl-phenyl)-N-[6-(2,3-dihydro-[1,4]oxazin-4-yl)-4-o-tolyl-pyridin-3-yl]-N-methyl-isobutyramide]
10 |  | 2.51 | CC(=O)Nc1cc(-c2ccccc2C)c(N(C)C(=O)C(C)(C)c2cc(C(F)(F)F)cc(C(F)(F)F)c2)cn1 [Example 10, N-(6-Acetylamino-4-o-tolyl-pyridin-3-yl)-2-(3,5-bis-trifluoromethyl-phenyl)-N-methyl-isobutyramide]
11 |  | 1.95 | CC(=O)N(C)c1cc(-c2ccccc2C)c(N(C)C(=O)C(C)(C)c2cc(C(F)(F)F)cc(C(F)(F)F)c2)cn1 [Example 11, N-[6-(Acetyl-methyl-amino)-4-o-tolyl-pyridin-3-yl]-2-(3,5-bis-trifluoromethyl-phenyl)-N-methyl-isobutyramide]
12 |  | 2.24 | Cc1ccccc1-c1cc(NC(=O)C2CC2)ncc1N(C)C(=O)C(C)(C)c1cc(C(F)(F)F)cc(C(F)(F)F)c1 [Example 12, Cyclopropanecarboxylic acid (5-{[2-(3,5-bis-trifluoromethyl-phenyl)-2-methyl-propionyl]-methyl-amino}-4-o-tolyl-pyridin-2-yl)-amide]
13 |  | 1.35 | Cc1ccccc1-c1cc(N(C)C(=O)C2CC2)ncc1N(C)C(=O)C(C)(C)c1cc(C(F)(F)F)cc(C(F)(F)F)c1 [Example 13, Cyclopropanecarboxylic acid (5-{[2-(3,5-bis-trifluoromethyl-phenyl)-2-methyl-propionyl]-methyl-amino}-4-o-tolyl-pyridin-2-yl)-methyl-amide]
14 |  | 2.24 | Cc1ccccc1-c1cc(-n2ccnc2)ncc1N(C)C(=O)C(C)(C)c1cc(C(F)(F)F)cc(C(F)(F)F)c1 [Example 14, 2-(3,5-Bis-trifluoromethyl-phenyl)-N-(6-imidazol-1-yl-4-o-tolyl-pyridin-3-yl)-N-methyl-isobutyramide]
